Experimental data reported in article PMC8296573, “Synthesis and Biological Evaluation of Fingolimod Derivatives as Antibacterial Agents” (ACS Omega, 2021).
Converted amounts (≈) assume the structure as drawn. Like-named read-outs stand apart in the source and are kept apart here.

Key:
S. aureus ATCC 25923 [1] = test: Antibacterial activity, pre-exposure (planktonic cells and biofilm formation); assay type: cell-based, Staphylococcus aureus; settings: for MIC / inhibition at 5 µM / inhibition at 10 µM / inhibition at 15 µM / inhibition at 25 µM: Staphylococcus aureus, ATCC25923; for inhibition at 5 µM / inhibition at 10 µM / inhibition at 15 µM / inhibition at 25 µM / Average inhibition %, biofilms viability / Average inhibition %, planktonic cells viability: pre-exposure, ± SD
Protocol: (§1) The antimicrobial activity was assessed in a similar way for the initial screening and the dose–response evaluation against different bacterial strains. With the exception of the post-exposure experiment, the compounds were added to the wells along with the bacteria to test the ability of compounds to prevent bacterial growth and biofilm formation (pre-exposure). The compounds were diluted in DMSO and plated directly in 96-well plates before adding the bacterial culture, and plates were incubated for 18 h under aerobic conditions at 37 °C with shaking (220 rpm). The antibacterial activity of the compounds was assessed on planktonic cells and biofilms separately using two different measurements for each: optical density (turbidity) and resazurin reduction (viability) on planktonic cells and resazurin followed by a crystal violet staining assay (total biomass) on biofilms, as described in the following sections.
(§2) The resazurin staining was performed according to the protocol previously optimized with a few modifications.[46] Briefly, the planktonic solution was first transferred into a new 96-well plate and the OD of the planktonic solution was measured using a Varioskan LUX Multimode microplate reader (Thermo Scientific, Vantaa, Finland). Then, 10 μL of a 400 μM resazurin (R7017, Sigma-Aldrich, St. Louis, MO) diluted in phosphate-buffered saline (PBS) (Thermo Fisher Scientific, MA) was added to the wells (for a final resazurin concentration of 20 μM). The plate was incubated in the dark with shaking (220 rpm) for about 3–10 min at room temperature with S. aureus and A. baumannii (until the bacteria controls turned pink) or for 20 min at 37 °C with P. aeruginosa. Fluorescence was measured at λex = 560 nm and λem = 590 nm using the top optics of the Varioskan LUX Multimode microplate reader. The planktonic plate was then discarded. The original challenge plate containing the biofilms was washed once with PBS, and 200 μL of a 20 μM resazurin solution was added to the wells. The plate was incubated in the dark at 37 °C with shaking (220 rpm) for 30 min with S. aureus, 60 min with A. baumannii, and 90 min with P. aeruginosa. Fluorescence was measured as described for the planktonic solution. The biofilms were next treated with crystal violet staining.
(§3) After removing the resazurin solution from the plate, biofilms were fixed with ethanol 100% for 15 min at room temperature. Ethanol was then removed, and the biofilms were left to air-dry completely at RT. Crystal violet, diluted to 1:100 in deionized water from the 2.3% commercial solution (HT90132, Sigma-Aldrich, St. Louis, MO), was added to the wells and, after a 5 min incubation with the dye, the biofilms were washed twice with deionized water and left to air-dry for about 10 min. The dye was solubilized in ethanol 100% for 1 h, and absorbance was measured at 595 nm using a Multiskan Sky microplate spectrophotometer (Thermo Scientific, Vantaa, Finland).

S. aureus ATCC 25923 [2] = test: Antibacterial activity, post-exposure on preformed 18-h-old biofilms; assay type: cell-based, Staphylococcus aureus; settings: ± SD; for inhibition at 25 µM / inhibition at 50 µM / inhibition at 100 µM / inhibition at 200 µM: Staphylococcus aureus; for inhibition at 25 µM: ATCC25923, 25 µM; for inhibition at 50 µM: ATCC25923, 50 µM; for inhibition at 100 µM: ATCC25923, 100 µM; for inhibition at 200 µM: ATCC25923, 200 µM
Protocol: For the post-exposure experiment, bacteria were grown with no compounds in the same conditions for 18 h, after which the media was changed, and compounds were added on the preformed biofilms. The plates were then incubated in the same conditions for an additional 24 h before proceeding to the staining assays.
as §2, §3

A. baumannii NCTC 13423 = test: Antibacterial activity, pre-exposure; assay type: cell-based, Acinetobacter baumannii; settings: for Average inhibition %, biofilms viability / Average inhibition %, planktonic cells viability / inhibition at 10 µM / inhibition at 15 µM / inhibition at 25 µM / inhibition at 50 µM: A. baumannii NCTC 13423, pre-exposure, ± SD; for inhibition at 10 µM / inhibition at 15 µM / inhibition at 25 µM / inhibition at 50 µM: Acinetobacter baumannii, NCTC13423
Protocol: as §1, §2, §3

P. aeruginosa ATCC 9027 = test: Antibacterial activity, pre-exposure; assay type: cell-based, Pseudomonas aeruginosa; settings: for Average inhibition %, biofilms viability / Average inhibition %, planktonic cells viability / inhibition at 50 µM / inhibition at 100 µM / inhibition at 150 µM / inhibition at 200 µM: P. aeruginosa ATCC 9027, pre-exposure, ± SD; for inhibition at 50 µM / inhibition at 100 µM / inhibition at 150 µM / inhibition at 200 µM: Pseudomonas aeruginosa, ATCC9027
Protocol: as §1, §2, §3

[3] = 10 µM, read-out: Average inhibition %, biofilms biomass
[4] = 10 µM, read-out: Average inhibition %, planktonic cells turbidity
[5] = 15 µM, read-out: Average inhibition %, biofilms biomass
[6] = 15 µM, read-out: Average inhibition %, planktonic cells turbidity
[7] = 25 µM, read-out: Average inhibition %, biofilms biomass
[8] = 25 µM, read-out: Average inhibition %, planktonic cells turbidity
[9] = read-out: Average inhibition %, biofilms biomass
[10] = read-out: Average inhibition %, planktonic cells turbidity
[11] = 50 µM, read-out: Average inhibition %, biofilms biomass
[12] = 50 µM, read-out: Average inhibition %, planktonic cells turbidity

MIC (S. aureus ATCC 25923 [1]; lowest concentration with no visible growth (>90% inhibition of turbidity and viability of planktonic cells), 18 h, read-out: MIC S. aureus ATCC 25923): 10 to 15 µM (≈ 3.36 to 5.03 µg/mL) | MIC (S. aureus ATCC 25923 [1]; read-out: MIC (S. aureus)): 10 to 15 µM (≈ 3.36 to 5.03 µg/mL) | MIC A. baumannii NCTC 13423 (A. baumannii NCTC 13423; pre-exposure, Inactive = no activity up to 50 μM, > = some inhibition but no MIC reached): Inactive ^d | MIC P. aeruginosa ATCC 9027 (P. aeruginosa ATCC 9027; pre-exposure, Inactive = no activity up to 200 μM, > = some inhibition but no MIC reached): Inactive
SMILES: CCCCCCCCCCc1ccc(CCC(N)(CO)CO)cc1 [Compound 11, 2-Amino-2-(4-decylphenethyl)propane-1,3-diol]
Initial screening result (active = at least 60% inhibition of planktonic cells and biofilm formation) (S. aureus ATCC 25923 [1]; 50 μM, S. aureus): active | inhibition at 5 µM (S. aureus ATCC 25923 [1]; 5 µM, read-out: Average inhibition %, biofilms biomass): 40.1 ± 36.6% | inhibition at 5 µM (S. aureus ATCC 25923 [1]; 5 µM, read-out: Average inhibition %, planktonic cells turbidity): 12.5 ± 12.4% | inhibition at 10 µM (S. aureus ATCC 25923 [1]; [3]): 75.6 ± 20.8% | inhibition at 10 µM (S. aureus ATCC 25923 [1]; [4]): 70.4 ± 40% | inhibition at 15 µM (S. aureus ATCC 25923 [1]; [5]): 87.1 ± 9.9% | inhibition at 15 µM (S. aureus ATCC 25923 [1]; [6]): 97.5 ± 1.9% | inhibition at 25 µM (S. aureus ATCC 25923 [1]; [7]): 89 ± 0.7% | inhibition at 25 µM (S. aureus ATCC 25923 [1]; [8]): 97.9 ± 1.2% | Average inhibition %, biofilms viability (S. aureus ATCC 25923 [1]; 5 µM): 41.8 ± 9.7% | Average inhibition %, planktonic cells viability (S. aureus ATCC 25923 [1]; 5 µM): 17 ± 23.3% | Average inhibition %, biofilms viability (S. aureus ATCC 25923 [1]; 10 µM): 72.2 ± 23.8% | Average inhibition %, planktonic cells viability (S. aureus ATCC 25923 [1]; 10 µM): 73.3 ± 34.2% | Average inhibition %, biofilms viability (S. aureus ATCC 25923 [1]; 15 µM): 84.9 ± 24.9% | Average inhibition %, planktonic cells viability (S. aureus ATCC 25923 [1]; 15 µM): 98.5 ± 1.7% | Average inhibition %, biofilms viability (S. aureus ATCC 25923 [1]; 25 µM): 93.8 ± 10.1% | Average inhibition %, planktonic cells viability (S. aureus ATCC 25923 [1]; 25 µM): 99.2 ± 1.3% | Average inhibition %, biofilms viability (S. aureus ATCC 25923 [2]; 25 µM): 10.2 ± 8.5% | Average inhibition %, planktonic cells viability (S. aureus ATCC 25923 [2]; 25 µM): 0 ± 0% | Average inhibition %, biofilms viability (S. aureus ATCC 25923 [2]; 50 µM): 17.5 ± 9% | Average inhibition %, planktonic cells viability (S. aureus ATCC 25923 [2]; 50 µM): 0 ± 0% | Average inhibition %, biofilms viability (S. aureus ATCC 25923 [2]; 100 µM): 24.8 ± 10.2% | Average inhibition %, planktonic cells viability (S. aureus ATCC 25923 [2]; 100 µM): 6 ± 10.4% | Average inhibition %, biofilms viability (S. aureus ATCC 25923 [2]; 200 µM): 25.8 ± 8.3% | Average inhibition %, planktonic cells viability (S. aureus ATCC 25923 [2]; 200 µM): 30.5 ± 9.5% | inhibition at 25 µM (S. aureus ATCC 25923 [2]; [9]): 32.6 ± 5.1% | inhibition at 25 µM (S. aureus ATCC 25923 [2]; [10]): 8.9 ± 8.2% | inhibition at 50 µM (S. aureus ATCC 25923 [2]; [9]): 35.4 ± 2.7% | inhibition at 50 µM (S. aureus ATCC 25923 [2]; [10]): 14 ± 4.2% | inhibition at 100 µM (S. aureus ATCC 25923 [2]; [9]): 48.9 ± 4.7% | inhibition at 100 µM (S. aureus ATCC 25923 [2]; [10]): 16.2 ± 8.6% | inhibition at 200 µM (S. aureus ATCC 25923 [2]; [9]): 47.6 ± 7.1% | inhibition at 200 µM (S. aureus ATCC 25923 [2]; [10]): 22.2 ± 12.7% | Average inhibition %, biofilms viability (A. baumannii NCTC 13423; 10 µM): 0 ± 0% | Average inhibition %, planktonic cells viability (A. baumannii NCTC 13423; 10 µM): 11.8 ± 6% | Average inhibition %, biofilms viability (A. baumannii NCTC 13423; 15 µM): 0.8 ± 1.4% | Average inhibition %, planktonic cells viability (A. baumannii NCTC 13423; 15 µM): 13.2 ± 6.7% | Average inhibition %, biofilms viability (A. baumannii NCTC 13423; 25 µM): 3.6 ± 5.6% | Average inhibition %, planktonic cells viability (A. baumannii NCTC 13423; 25 µM): 10.3 ± 9% | Average inhibition %, biofilms viability (A. baumannii NCTC 13423; 50 µM): 21.4 ± 1.1% | Average inhibition %, planktonic cells viability (A. baumannii NCTC 13423; 50 µM): 0.1 ± 0.1% | inhibition at 10 µM (A. baumannii NCTC 13423; [3]): 5.1 ± 8.9% | inhibition at 10 µM (A. baumannii NCTC 13423; [4]): 0% | inhibition at 15 µM (A. baumannii NCTC 13423; [5]): 0% | inhibition at 15 µM (A. baumannii NCTC 13423; [6]): 0% | inhibition at 25 µM (A. baumannii NCTC 13423; [7]): 5.1 ± 4.6% | inhibition at 25 µM (A. baumannii NCTC 13423; [8]): 0% | inhibition at 50 µM (A. baumannii NCTC 13423; [11]): 15.9 ± 13.8% | inhibition at 50 µM (A. baumannii NCTC 13423; [12]): 0% | Average inhibition %, biofilms viability (P. aeruginosa ATCC 9027; 50 µM): 0 ± 0% | Average inhibition %, planktonic cells viability (P. aeruginosa ATCC 9027; 50 µM): 26.2 ± 4.1% | Average inhibition %, biofilms viability (P. aeruginosa ATCC 9027; 100 µM): 0 ± 0% | Average inhibition %, planktonic cells viability (P. aeruginosa ATCC 9027; 100 µM): 6.4 ± 11.1% | Average inhibition %, biofilms viability (P. aeruginosa ATCC 9027; 150 µM): 0 ± 0% | Average inhibition %, planktonic cells viability (P. aeruginosa ATCC 9027; 150 µM): 10.3 ± 9.3% | Average inhibition %, biofilms viability (P. aeruginosa ATCC 9027; 200 µM): 0 ± 0% | Average inhibition %, planktonic cells viability (P. aeruginosa ATCC 9027; 200 µM): 1.2 ± 2% | inhibition at 50 µM (P. aeruginosa ATCC 9027; [11]): 8.3 ± 5.9% | inhibition at 50 µM (P. aeruginosa ATCC 9027; [12]): 22.2 ± 20.1% | inhibition at 100 µM (P. aeruginosa ATCC 9027; 100 µM, read-out: Average inhibition %, biofilms biomass): 13 ± 13.3% | inhibition at 100 µM (P. aeruginosa ATCC 9027; 100 µM, read-out: Average inhibition %, planktonic cells turbidity): 20.4 ± 17.1% | inhibition at 150 µM (P. aeruginosa ATCC 9027; 150 µM, read-out: Average inhibition %, biofilms biomass): 12.1 ± 11.1% | inhibition at 150 µM (P. aeruginosa ATCC 9027; 150 µM, read-out: Average inhibition %, planktonic cells turbidity): 7.6 ± 5.1% | inhibition at 200 µM (P. aeruginosa ATCC 9027; 200 µM, read-out: Average inhibition %, biofilms biomass): 3.1 ± 4.2% | inhibition at 200 µM (P. aeruginosa ATCC 9027; 200 µM, read-out: Average inhibition %, planktonic cells turbidity): 13.4 ± 11.7%
